Measurements published in patent publication US11028077B2, “Crystalline pharmaceutical and methods of preparation and use thereof” (NOVARTIS PHARMACEUTICALS CORPORATION, priority 2008, dated 2021).
pEC50: −log10 of the molar value. Read-outs that look alike come from different tables or passages of the source.

Assays:
[1] = tested on: human mononuclear cells (PBMC) stimulated with staphylococcal enterotoxin B (SEB); experiment: cells; type: cell-based
[2] = Single dose ocular and IV ADME study with [14C]-compound in rats, quantitative whole body autoradiography; type: in vivo, rat; settings: for excretion in feces, % of the administered radioactivity: 0 to 168 hours postdose
[3] = Rat ocular pharmacokinetics of [14C]-compound (ocular tissue levels); type: in vivo; settings: for Concentration, Aqueous humor: ocular dosing in rats
[4] = 0.5 hour postdose, topical ocular 1 mg/eye
[5] = 0.5 hour postdose, topical ocular 1 mg/eye, above upper limit of quantification
[6] = 8 hours postdose, topical ocular 1 mg/eye
[7] = 24 hours postdose, topical ocular 1 mg/eye
[8] = at 2 hours postdose vs 0.5 hour

Structure (SMILES): O=C(NC(Cc1cc(=O)[nH]c2ccccc12)C(=O)O)c1ccc(Cl)cc1 (stereo not drawn) [Rebamipide, reference compound]
- pEC50 ([1]; read-out: EC50 Cytokine Release GM-CSF): < 3.00
- pEC50 ([1]; read-out: EC50 Cytokine Release IFNγ): < 3.00
- pEC50 ([1]; read-out: EC50 Cytokine Release IL-1α): < 3.00
- pEC50 ([1]; read-out: EC50 Cytokine Release IL-1β): < 3.00
- pEC50 ([1]; read-out: EC50 Cytokine Release IL-2): < 3.00
- pEC50 ([1]; read-out: EC50 Cytokine Release IL-3): < 3.00
- pEC50 ([1]; read-out: EC50 Cytokine Release IL-4): < 3.00
- pEC50 ([1]; read-out: EC50 Cytokine Release IL-5): < 3.00
- pEC50 ([1]; read-out: EC50 Cytokine Release IL-6): < 3.00
- pEC50 ([1]; read-out: EC50 Cytokine Release IL-10): < 3.00
- pEC50 ([1]; read-out: EC50 Cytokine Release IL-12p40): < 3.00
- pEC50 ([1]; read-out: EC50 Cytokine Release IL-13): < 3.00
- pEC50 ([1]; read-out: EC50 Cytokine Release IP-10): < 3.00
- pEC50 ([1]; read-out: EC50 Cytokine Release MCP-1): < 3.00
- pEC50 ([1]; read-out: EC50 Cytokine Release MIP-1α): < 3.00
- pEC50 ([1]; read-out: EC50 Cytokine Release TNF-α): < 3.00

Structure (SMILES): CS(=O)(=O)c1cccc(C[C@H](NC(=O)c2c(Cl)cc3c(c2Cl)CCN(C(=O)c2ccc4ccoc4c2)C3)C(=O)O)c1 [[^14C]-compound of Formula I]
- radioactivity concentration, eye [2, 4]: 18100 ng equivalents [^14C]-compound of Formula I/g
- radioactivity concentration, liver [2, 4]: 272 ng equivalents [^14C]-compound of Formula I/g
- radioactivity concentration, uveal tract [2, 4]: 9330 ng equivalents [^14C]-compound of Formula I/g
- radioactivity concentration, esophageal contents ([2]; 0.5 hour postdose, topical ocular 1 mg/eye, male Sprague Dawley rats, above upper limit of quantification): 399000 ng equivalents [^14C]-compound of Formula I/g
- radioactivity concentration, nasal turbinates [2, 5]: 352000 ng equivalents [^14C]-compound of Formula I/g
- radioactivity concentration, small intestinal contents [2, 5]: 349000 ng equivalents [^14C]-compound of Formula I/g
- radioactivity level, eye lens ([2]; 2 hours postdose, topical ocular 1 mg/eye): BLQ
- radioactivity concentration, cecum contents [2, 6]: 57600 ng equivalents [^14C]-compound of Formula I/g
- radioactivity concentration, large intestinal contents [2, 6]: 133000 ng equivalents [^14C]-compound of Formula I/g
- radioactivity concentration, uveal tract ([2]; 12 hours postdose, topical ocular 1 mg/eye): 610 ng equivalents [^14C]-compound of Formula I/g
- radioactivity concentration, cecum contents [2, 7]: 5870 ng equivalents [^14C]-compound of Formula I/g
- radioactivity concentration, large intestinal contents [2, 7]: 18000 ng equivalents [^14C]-compound of Formula I/g
- excretion in feces, % of the administered radioactivity ([2]; IV administration 10 mg/kg): ~95%
- decline of radioactivity concentration, esophageal contents [2, 8]: ~100 fold
- decline of radioactivity concentration, esophagus [2, 8]: approximately 50 fold
- excretion in feces, % of the administered radioactivity ([2]; ocular administration 1 mg/eye): approximately 60%
- Urinary excretion, % of the administered radioactivity ([2]; ocular or IV administration): up to 2%
- metabolites in pooled plasma, urine and fecal homogenates ([2]; rats, up to 168 hrs following topical ocular or IV dose): no metabolites were isolated
- Concentration, Conjunctiva (bulbar) ([3]; 0.5 hour after administration): 31500 ng Equivalents [^14C]-compound of Formula I/g tissue
- Concentration, Conjunctiva (palpebral) ([3]; 0.5 hour after administration): 26300 ng Equivalents [^14C]-compound of Formula I/g tissue
- Concentration, Cornea ([3]; 0.5 hour after administration): 17150 ng Equivalents [^14C]-compound of Formula I/g tissue
- Concentration, Iris-ciliary body ([3]; 0.5 hour after administration): 17550 ng Equivalents [^14C]-compound of Formula I/g tissue
- Concentration, Lens ([3]; 0.5 hour after administration): 38.8 ng Equivalents [^14C]-compound of Formula I/g tissue
- Concentration, Optic Nerve ([3]; 0.5 hour after administration): 796 ng Equivalents [^14C]-compound of Formula I/g tissue
- Concentration, Retina and Choroid (with RPE) ([3]; 0.5 hour after administration): 510 ng Equivalents [^14C]-compound of Formula I/g tissue
- Concentration, Sclera ([3]; 0.5 hour after administration): 2750 ng Equivalents [^14C]-compound of Formula I/g tissue
- Concentration, Vitreous Humor ([3]; 0.5 hour after administration): 1330 ng Equivalents [^14C]-compound of Formula I/g tissue
- Concentration, Aqueous humor ([3]; 0.5 hour after administration): 1770 ng Equivalents [^14C]-compound of Formula I/g tissue
- Concentration, Conjunctiva (bulbar) ([3]; 4.0 hours after administration): 4480 ng Equivalents [^14C]-compound of Formula I/g tissue
- Concentration, Conjunctiva (palpebral) ([3]; 4.0 hours after administration): 21830 ng Equivalents [^14C]-compound of Formula I/g tissue
- Concentration, Cornea ([3]; 4.0 hours after administration): 1346 ng Equivalents [^14C]-compound of Formula I/g tissue
- Concentration, Iris-ciliary body ([3]; 4.0 hours after administration): 500 ng Equivalents [^14C]-compound of Formula I/g tissue
- Concentration, Lens ([3]; 4.0 hours after administration): 9.69 ng Equivalents [^14C]-compound of Formula I/g tissue
- Concentration, Optic Nerve ([3]; 4.0 hours after administration): 0 ng Equivalents [^14C]-compound of Formula I/g tissue
- Concentration, Retina and Choroid (with RPE) ([3]; 4.0 hours after administration): 46.7 ng Equivalents [^14C]-compound of Formula I/g tissue
- Concentration, Sclera ([3]; 4.0 hours after administration): 387 ng Equivalents [^14C]-compound of Formula I/g tissue
- Concentration, Vitreous Humor ([3]; 4.0 hours after administration): 183 ng Equivalents [^14C]-compound of Formula I/g tissue
- Concentration, Aqueous humor ([3]; 4.0 hours after administration): 116 ng Equivalents [^14C]-compound of Formula I/g tissue
